# Where two headings read alike, the source gives them in different places.
# What was measured:
# [1] = test system: MMH/GH cells, Clone 4
# [2] = test system: MMH/GH cells, Clone 11; settings: for hGH secreted, 5 h: 5 h treatment
# [3] = test system: single transgenic HPS70/hGH primary hepatocytes (PHGH); experiment: toxicity test, hGH secretion by primary transgenic hepatocytes (PHGH); assay type: cell-based, mice
# Description: On the basis of the results illustrated, for the further analyses, clone no. […] The response to the toxic stress of the clone MMH/GH5 was then compared with the one obtained in single transgenic HPS70/hGH primary hepatocytes (PHGH). A representative sample of the cell line derived from said clone MMH/GH5 was deposited in accordance with and for the purposes of the Treaty of Budapest on the international recognition of deposit of micro-organisms for the purposes of the patents procedure with the AID “Centro di Biotecnologie Avanzate (CBA), Interlab Cell Line Collection (ICLC)” Servizio Biotecnologie, Largo R. Benzi, 10, 16132 Genova, Italy, on Jul. 30, 2002, where it was given identification number PD 02007.
# (§1) In table 3 the cellular survival percentage was determined with the Trypan Blue exclusion method. […]
# (§2) For treatment, the two types of cells were treated with different concentrations of the compounds for 1 or 5 hours and then with normal medium for a further 24 hours. The effects of the treatment were assessed as described previously for the inorganic toxicants.
# [4] = test system: MMH/GH cells, Clone 2; settings: for hGH secreted, 5 h: 5 h treatment; for hGH secreted, 5 + 24 h: 5 h treatment + 24 h recovery
# [5] = test system: MMH/GH cells, Clone 10; settings: for hGH secreted, 5 h: 5 h treatment; for hGH secreted, 5 + 24 h: 5 h treatment + 24 h recovery
# [6] = test system: MMH/GH cells, Clone 9; settings: for hGH secreted, 5 h: 5 h treatment; for hGH secreted, 5 + 24 h: 5 h treatment + 24 h recovery
# [7] = test system: primary hepatocytes (PHGH); experiment: cellular survival of PHGH, Trypan Blue exclusion; assay type: cell-based, mice; design: % cellular survival, PHGH 1 + 24 h / % cellular survival, PHGH 5 + 24 / % vitality of the cells, PHGH 1 + 24 h / % vitality of the cells, PHGH 5 + 24 h: unit of the concentration uncertain; settings: for % vitality of the cells, PHGH 1 + 24 h: 1 h treatment + 24 h normal medium; for % vitality of the cells, PHGH 5 + 24 h: 5 h treatment + 24 h normal medium
# Description: (§3) This different behaviour is explained by the greater sensitivity to the toxicant of the PHGH with respect to the MMH/GH5 as shown by analysis of the cellular vitality performed with the Trypan Blue method (FIG. 1, graph B). […] Therefore the greater resistance of the cells MMH/GH/5 to the toxicants constitutes another evident advantage as it permits the exclusion of false negatives in which the non-release of hGH, due to cellular death, is interpreted as non-toxicity of the compound. When the supernatant is collected after 5 hours of treatment followed by 24 hours of culture with normal medium (FIG. 1 graph C) the PHGHs respond, at the lowest concentrations of the two toxicants, with high levels of secretion of hGH and, at the highest concentrations, with low levels of secretion of hGH (lower cellular survival, graph D).
# as §1, §2
# [8] = test system: MMH/GH5 cells (Clone 5); settings: for hGH secreted, 5 h / hGH secreted, 5 + 24 h: Clone 5; for hGH secreted, 5 h: 5 h treatment; for hGH secreted, 5 + 24 h: 5 h treatment + 24 h recovery
# [9] = test system: MMH/GH5 cells; experiment: cellular survival of MMH/GH5, Trypan Blue exclusion; assay type: cell-based, mice; design: % cellular survival, MMHGH/5 1 + 24 h / % cellular survival, MMHGH/5 5 + 24 / % vitality of the cells, MMH/GH 1 + 24 h / % vitality of the cells, MMH/GH 5 + 24 h: unit of the concentration uncertain; settings: for % vitality of the cells, MMH/GH 1 + 24 h: 1 h treatment + 24 h normal medium; for % vitality of the cells, MMH/GH 5 + 24 h: 5 h treatment + 24 h normal medium
# Description: as §3, §1, §2
# [10] = 50 (unit uncertain), Trypan Blue (Table 4)
# [11] = 100 (unit uncertain), Trypan Blue
smiles,measurement,setting,value
[Cl][Cd][Cl] [CdCl2],"hGH secreted, 5 h","[1]; Clone 4, 5x10^-5 M (As2/Cd2), 5 h treatment",0
same,"hGH secreted, 5 + 24 h","[1]; Clone 4, 5x10^-5 M (As2/Cd2), 5 h treatment + 24 h recovery",0
same,"hGH secreted, 5 h","[1]; Clone 4, 10^-4 M (As3/Cd3), 5 h treatment",0
same,"hGH secreted, 5 + 24 h","[1]; Clone 4, 10^-4 M (As3/Cd3), 5 h treatment + 24 h recovery",0
same,"hGH secreted, 5 h","[1]; Clone 4, 10^-5 M (As1/Cd1), 5 h treatment",0
same,"hGH secreted, 5 + 24 h","[1]; Clone 4, 10^-5 M (As1/Cd1), 5 h treatment + 24 h recovery",0
same,"hGH secreted, 5 h","[2]; Clone 11, 5x10^-5 M (As2/Cd2)",0
same,"hGH secreted, 5 + 24 h","[2]; Clone 11, 5x10^-5 M (As2/Cd2), 5 h treatment + 24 h recovery",0
same,"hGH secreted, 5 h","[2]; Clone 11, 10^-4 M (As3/Cd3)",0
same,"hGH secreted, 5 + 24 h","[2]; Clone 11, 10^-4 M (As3/Cd3), 5 h treatment + 24 h recovery",0
same,"hGH secreted, 5 h","[2]; Clone 11, 10^-5 M (As1/Cd1)",40
same,"hGH secreted, 5 + 24 h","[2]; Clone 11, 10^-5 M (As1/Cd1), 5 h treatment + 24 h recovery",0
same,release of hGH in the culture medium in relation to concentration of the toxicant,"[3]; PHGH, 10^-5, 5x10^-5, 10^-4 M, 5 h, FIG. 1 graph A",inversely proportional
same,"hGH secreted, 5 h",[4]; 5x10^-5 M (As2/Cd2),0
same,"hGH secreted, 5 + 24 h",[4]; 5x10^-5 M (As2/Cd2),4
same,"hGH secreted, 5 h",[4]; 10^-4 M (As3/Cd3),0
same,"hGH secreted, 5 + 24 h",[4]; 10^-4 M (As3/Cd3),0
same,"hGH secreted, 5 h",[4]; 10^-5 M (As1/Cd1),0
same,"hGH secreted, 5 + 24 h",[4]; 10^-5 M (As1/Cd1),0
same,"hGH secreted, 5 h",[5]; 5x10^-5 M (As2/Cd2),0
same,"hGH secreted, 5 + 24 h",[5]; 5x10^-5 M (As2/Cd2),12
same,"hGH secreted, 5 h",[5]; 10^-4 M (As3/Cd3),0
same,"hGH secreted, 5 + 24 h",[5]; 10^-4 M (As3/Cd3),7
same,"hGH secreted, 5 h",[5]; 10^-5 M (As1/Cd1),0
same,"hGH secreted, 5 + 24 h",[5]; 10^-5 M (As1/Cd1),25
same,"hGH secreted, 5 h",[6]; 5x10^-5 M (As2/Cd2),200
same,"hGH secreted, 5 + 24 h",[6]; 5x10^-5 M (As2/Cd2),0
same,"hGH secreted, 5 h",[6]; 10^-4 M (As3/Cd3),5
same,"hGH secreted, 5 + 24 h",[6]; 10^-4 M (As3/Cd3),0
same,"hGH secreted, 5 h",[6]; 10^-5 M (As1/Cd1),0
same,"hGH secreted, 5 + 24 h",[6]; 10^-5 M (As1/Cd1),0
same,survival of the PHGHs,"[7]; highest concentrations of the toxicant, Trypan Blue, FIG. 1 graph B",practically nil
same,"hGH secreted, 5 h",[8]; 5x10^-5 M (As2/Cd2),50
same,"hGH secreted, 5 + 24 h",[8]; 5x10^-5 M (As2/Cd2),40
same,"hGH secreted, 5 h",[8]; 10^-4 M (As3/Cd3),90
same,"hGH secreted, 5 + 24 h",[8]; 10^-4 M (As3/Cd3),20
same,"hGH secreted, 5 h",[8]; 10^-5 M (As1/Cd1),25
same,"hGH secreted, 5 + 24 h",[8]; 10^-5 M (As1/Cd1),25
same,release of hGH in the culture medium in relation to concentration of the toxicant,"[8]; MMH/GH5, 10^-5, 5x10^-5, 10^-4 M, 5 h, FIG. 1 graph A",directly proportional to the concentration of the toxicant
O=[As][O-].[Na+] [NaAsO2],"hGH secreted, 5 + 24 h",[1],0
same,"hGH secreted, 5 h",[1],0
same,"hGH secreted, 5 + 24 h",[2],0
"Oc1c(Cl)c(Cl)c(O)c(Cl)c1Cl [TCHQ, TetraChloroHydroQuinone]",response in PHGH,"[3]; compared with PCP, words",stronger response
same,"% vitality of the cells, PHGH 1 + 24 h",[7]; [10],50%
same,"% vitality of the cells, PHGH 5 + 24 h",[7]; [10],60%
same,"% vitality of the cells, PHGH 1 + 24 h",[7]; [11],0%
same,"% vitality of the cells, PHGH 5 + 24 h",[7]; [11],0%
same,"% vitality of the cells, MMH/GH 1 + 24 h",[9]; [10],50%
same,"% vitality of the cells, MMH/GH 5 + 24 h",[9]; [10],30%
same,"% vitality of the cells, MMH/GH 1 + 24 h",[9]; [11],10%
same,"% vitality of the cells, MMH/GH 5 + 24 h",[9]; [11],0%
same,response in MMH/GH5,"[8]; compared with PCP, words",stronger response

# Reference: patent US20050255595A1, “Genetically modified non-human mammal cells, procedure for their production and use in toxicity tests” (priority 2002, published 2005)
